Read-outs that look alike come from different tables or passages of the source.
Experiments:
[1] = β-carotene-linoleic acid (BCLA) assay; type: biochemical; conditions: bleaching of β-carotene, 450 nm, up to 120 min; mean ± SD (n = 3); read-out: BCLA method (IC50)
Protocol: This test was carried out according to the reported method of literature with modification. Approximately 4 mL of a solution of β-carotene in chloroform (1 mg/mL) were pipetted into a flask containing 40 mg of linoleic acid and 400 mg of Tween-40. The chloroform was removed using a rotary evaporator at 40 °C for 5 min, and to the residue, 100 mL of distilled water were added, slowly with vigorous agitation, to form an emulsion. A 96-well micro-titer plate was added with 50 μL of the Part 2.4.1 solution of the test compound and 200 μL of the emulsion, and the absorbance was measured at 450 nm, immediately, against a blank consisting of the emulsion without β-carotene. The plate was allowed to stand at room temperature (20–23 °C), and the absorbance measurements were conducted again at 30 min intervals up to 120 min. All tests were carried out in triplicate. Stable antioxidants of AscA and BHT were used as positive controls. The antioxidant activity (AA) of the test samples was evaluated in terms of bleaching of β-carotene using the formula; AA = [1 − (A0 − At)/(A0' − At')] × 100, where A0 and A0' are the absorbance values measured at zero time of the sample and the blank, respectively, and At and At' are the absorbance measured in the test sample and the blank, respectively, at times up to 120 min.

[2] = Cytotoxicity on Vero cells by MTT assay; type: cell-based; conditions: African green monkey (Cercopitheus aethiops)
Protocol: The isolated compounds were tested for in-vitro cytotoxicity using Vero cells by 3-(4,5-dimethylthiazol-2-yl)-2,5-diphenyltetrazolium bromide (MTT) assay. The Vero cell line was initiated from kidney of a normal adult African green monkey, Cercopitheus aethiops, obtained from Virology Laboratory, School of Biosciences and Biotechnology, Faculty of Science and Technology, UKM. Vero cells were maintained in DMEM, supplemented with 10% FBS and cultured at 37 °C in a humidified 5% CO2 incubator. The concentration of stock compound solution was 1.0 mg/mL prepared by dissolving 1 mg compound in 50 μL methanol and 950 μL 5% FBS-DMEM. Sonicator was used to emulsify the compounds for 40 min before the two-fold dilutions made in 5% FBS-DMEM to produce a compound solution at concentrations of 0.5, 0.25, 0125 and 0.0625 mg/mL. Briefly, a total of […] of cell suspension with different concentrations were added to each well in the 96-well micro-titer plates. As a positive control, each well from first to third wells was added with cells of 2.5 × 10^5, 1.25 × 10^5 and 0.625 × 10^5 cells/mL. For the negative control (100% cell death, LC100), […] of DMEM without cells were added to the twelfth well. Cells of 2.5 × 10^5 cells/mL were added into the fourth to eleventh wells. The plates were incubated for 48 h at 37 °C with 5% CO2 until a monolayer is formed. […] After the incubation period, MTT (20 μL, 5 mg/mL) was added into each well and the cells incubated for 2 to 4 h, until a purple precipitate was clearly visible under a microscope, the medium together with MTT (190 μL) was aspirated off from the wells, DMSO (100 μL) was added and the plate shaken for 5 min. The absorbance for each well was measured at 540 nm in a micro-titer plate reader and percentage of cell viability (CV) was calculated manually using the formula: CV = [(Abssample − Absnegative control)/(Abscell − Absnegative control)] × 100.

[3] = DPPH radical scavenging activity (RSA) assay; type: biochemical; conditions: for IC50: 15 min in the dark at room temperature, 515 nm, mean ± SD (n = 3), read-out: DPPH radical scavenging activities (IC50); for average fold higher DPPH scavenging activity compared to compounds 1 to 6: positive controls vs compounds 1 to 6
Protocol: The antioxidant activity of all six compounds was determined by the DPPH radical scavenging method according to the previous procedure with modification. Each compound was diluted two-fold in a series of five starting from 5.00 mg/mL. The solution of DPPH in methanol (6 × 10^−5 M) was prepared daily before UV measurements. A 3 mL aliquot of this solution was mixed with 77 μL of the compound solution in a 1-cm path length microcuvette. The mixture was shaken vigorously. The mixtures were then kept in the dark for 15 min at room temperature and the decrease in absorption was measured immediately in a UV-Vis spectrophotometer at 515 nm. The blank solution containing the same amount of methanol and DPPH solution was prepared and its absorption was measured daily. The experiment was carried out in triplicate. AscA and BHT were used as positive controls. The RSA of samples, expressed as percentage inhibition of DPPH, was calculated according to the formula: Inhibition percentage (Ip) = [(AB − AA)/AB] × 100, where AB and AA are the absorbance values—checked after 15 min—of the blank sample and of the tested sample solutions, respectively.

[4] = cited from earlier work
[5] = Vero cells, MTT, 24 h incubation, read-out: Cytotoxic activities on Vero cell lines (LC50)
[6] = from V. chunganensis, read-out: DPPH RSA
[7] = from Parthenocissus laetevirens, read-out: DPPH RSA antioxidant activities
[8] = from V. wilsonae, read-out: antioxidant activities towards DPPH, IC50

`Oc1ccc([C@@H]2c3c(O)cc(O)cc3[C@@H]3c4c(cc(O)cc4[C@@H]2O)O[C@H]3c2ccc(O)cc2)cc1` (relative stereo) [Compound 1, acuminatol] showed an IC50 [1] of 180 ± 10 µM, a CC50 at 24 h [2, 5] of 400 µM and an IC50 [3] of 10060 ± 50 µM.
In the case of `O=C1O[C@H]([C@@H](O)CO)C(O)=C1O` [AscA, ascorbic acid, reference compound], the IC50 [1] is reported as 25200 ± 1740 µM, the IC50 [3] is reported as 680 µM and the “average fold higher DPPH scavenging activity compared to compounds 1 to 6” value [3] is reported as 6 fold.
For `Cc1cc(C(C)(C)C)c(O)c(C(C)(C)C)c1` [BHT, butylated hydroxytoluene, reference compound], the IC50 [1] was 90 µM, the IC50 [3] was 950 ± 50 µM and the “average fold higher DPPH scavenging activity compared to compounds 1 to 6” value [3] was 4 fold.
With `O=C1O[C@@H]2[C@H](O)COC23O[C@@H](c2ccc(O)cc2)[C@H](c2cc(O)cc4c2[C@@H](c2cc(O)cc(O)c2)[C@H](c2ccc(O)cc2)O4)[C@@]13O` (stereo partly shown) [Compound 2, laevifonol] the IC50 [1] was 220 ± 20 µM, the CC50 at 24 h [2, 5] was 597 µM and the IC50 [3] was 4210 ± 230 µM.
`Oc1ccc([C@H]2Oc3cc(O)cc4c3[C@@H]2c2cc(O)cc3c2[C@@H](c2cc(O)cc5c2[C@@H]4[C@H](c2ccc(O)cc2)O5)[C@H](c2ccc(O)cc2)O3)cc1` [Compound 3, (+)-α-viniferin] showed an IC50 [1] of 180 µM, a CC50 at 24 h [2, 5] of 208 µM and an IC50 [3] of 6290 ± 50 µM.
Compound `O=C1C=CC23C(C1)Oc1cc(O)cc4c1C2C(c1cc(O)cc2c1C4C(c1ccc(O)cc1)O2)C(c1cc(O)cc2c1C(c1cc(O)cc(O)c1)C(c1ccc(O)cc1)O2)C3c1ccc(O)cc1` (stereo not shown) [Compound 4, shoreaketone] has an IC50 [1] of 110 µM, a CC50 at 24 h [2, 5] of 830 µM and an IC50 [3] of 1540 ± 100 µM.
With `Oc1ccc([C@@H]2c3c(O)cc(O)cc3[C@@H]3c4c(cc(O)c5c4[C@@H]2[C@H](c2ccc(O)cc2)[C@H]5c2cc(O)cc4c2[C@@H](c2cc(O)cc(O)c2)[C@H](c2ccc(O)cc2)O4)O[C@H]3c2ccc(O)cc2)cc1` [Compound 5, vaticanol B] the IC50 [1] was 100 ± 10 µM, the CC50 at 24 h [2, 5] was 759 µM and the IC50 [3] was 840 ± 20 µM.
Work on `Oc1ccc([C@H]2c3c(O)cc(O)cc3[C@H]3c4c(cc(O)cc4[C@@H]2[C@H]2c4cc(O)cc5c4[C@H](c4cc(O)cc(O)c4[C@@H]2c2ccc(O)cc2)[C@@H](c2ccc(O)cc2)O5)O[C@@H]3c2ccc(O)cc2)cc1` [Compound 6, (−)-hopeaphenol] yielded an IC50 [1] of 100 ± 10 µM, a CC50 at 24 h [2] of 161 µM and an IC50 [3] of 2780 ± 160 µM.
In the case of `Oc1ccc(/C=C/c2c3c(cc4c2[C@H](c2cc(O)c(Cc5c(O)cc(O)cc5[C@@H]5c6c(O)cc7c8c6[C@H]([C@@H](c6ccc(O)cc6)c6c(O)cc(O)cc6[C@@H]8[C@@H](c6ccc(O)cc6)O7)[C@H]5c5ccc(O)cc5)c(O)c2)[C@@H](c2ccc(O)cc2)O4)O[C@H](c2ccc(O)cc2)[C@H]3c2cc(O)cc(O)c2)cc1` [chunganenol], the IC50 [4, 6] is listed as 37.3 µM.
In the case of `Oc1ccc([C@H]2c3c(O)cc(O)c4c3c(cc3ccc(O)cc34)[C@@H]2c2cc(O)cc(O)c2)cc1` [laetevirenol A], the IC50 [4, 7] is given as 38.4 µM.
In the case of `Oc1cc(O)cc(/C=C/c2ccc(O)c(O)c2)c1` [piceatanol], the IC50 ([4]; from Cyperus longus, read-out: DPPH RSA IC50) is given as 11 µM.
In the case of `C[C@H](O)/C=C/[C@@]1(O)[C@H](C)[C@H](O)[C@@H](O)CC1(C)C` [wilsonol A], the IC50 [4, 8] is given as 104 µM.
For `C[C@@H]1[C@H](O)[C@@H](O)CC(C)(C)[C@@]1(O)/C=C/[C@@H](C)O` [wilsonol B], the IC50 [4, 8] is given as 195 µM.
For `CC(=O)/C=C/[C@@]1(O)[C@H](C)[C@H](O)[C@@H](O)CC1(C)C` [wilsonol C], the IC50 [4, 8] is given as 182 µM.
For (+)-amurensin G, the IC50 [4, 6] is given as 138 µM.
For (+)-gnetin H, the IC50 [4, 6] is given as 251 µM.
In the case of diviniferin B, the IC50 [4, 8] is listed as 175 µM.
In the case of laetevirenol B, the IC50 [4, 7] is given as 37.3 µM.
In the case of laetevirenol C, the IC50 [4, 7] is listed as 111 µM.
In the case of laetevirenol D, the IC50 [4, 7] is listed as 128 µM.
For laetevirenol E, the IC50 [4, 7] is listed as 158 µM.
